From ChEMBL document CHEMBL1131537, “Synthesis of [(2'S, 3'S)-bis(hydroxylmethyl)pyrrolidin-1-yl] purine and pyrimidine nucleosides as potential antiviral agents” (Bioorg Med Chem Lett, 1998)
Activity calls are given as the source filed them.

How the values were obtained:
Format in all cases: functional, cell-based
[1] = tested on: MT4; assay: […] was evaluated against HIV-1 in MT-4 cells at concentration up to 10 ug/mL by indirect immunofluorescence assay; Inactive; conditions: Homo sapiens
[2] = tested on: Vero; assay: Antiviral activity was evaluated against HSV-2 in Vero cells at concentration up to 10 ug/mL by plaque reduction assay; Inactive; conditions: Chlorocebus sabaeus
[3] = tested on: Vero; assay: Antiviral activity was evaluated against HSV-1 in Vero cells at concentration up to 10 ug/mL by plaque reduction assay; Inactive; conditions: Chlorocebus sabaeus

Measured: Activity

Nc1ncnc2c1ncn2N1CC[C@H](CO)[C@H]1CO
inactive: all assays above

Cc1cn(N2CC[C@H](CO)[C@H]2CO)c(=O)[nH]c1=O
inactive: all assays above
